Assay [1] addresses T1, full length human CD39L3 (Homo sapiens, UniProt O75355, A496V).
T1 construct: Cells were transiently transfected with the full length human CD39L3 clone; expressed in transfected cells; host or cells: HEK293 cells, transiently transfected; frozen and thawed intact cells
T1 sequence (O75355 1-529 A496V): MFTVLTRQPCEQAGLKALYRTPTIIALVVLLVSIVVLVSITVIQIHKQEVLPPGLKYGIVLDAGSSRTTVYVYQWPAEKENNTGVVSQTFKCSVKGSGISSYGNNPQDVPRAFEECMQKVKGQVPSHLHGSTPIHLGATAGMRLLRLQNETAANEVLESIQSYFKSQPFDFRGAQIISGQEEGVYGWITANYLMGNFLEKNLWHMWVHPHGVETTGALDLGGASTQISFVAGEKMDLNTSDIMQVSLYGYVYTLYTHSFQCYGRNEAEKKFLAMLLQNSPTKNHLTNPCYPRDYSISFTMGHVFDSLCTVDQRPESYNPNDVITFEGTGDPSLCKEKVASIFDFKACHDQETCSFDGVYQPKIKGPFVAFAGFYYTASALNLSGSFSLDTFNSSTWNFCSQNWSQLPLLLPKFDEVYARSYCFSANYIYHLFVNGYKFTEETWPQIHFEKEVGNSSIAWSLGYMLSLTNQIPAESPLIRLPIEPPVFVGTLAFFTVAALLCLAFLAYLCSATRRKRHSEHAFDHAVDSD
Briefly: Piper Phosphate Assay of CD39L3 nucleotide hydrolysis activity in transiently transfected HEK293 cells. In kind it is biochemical. The protocol:
(§1) FIG. 4 illustrates the Km of ATP determined for full length human CD39L3 in transiently transfected HEK293 cells. The Km of ATP values determined under two concentrations of each cation source: CaCl2 and MgCl2. […] Activity assays were performed with the Piper Phosphate Assay (Molecular Probes).
(§2) FIG. 5 illustrates the Km of ADP determined for full length human CD39L3 in transiently transfected HEK293 cells. The Km of ADP values determined under two concentrations of each cation source: CaCl2 and MgCl2. […] Activity assays were performed with the Piper Phosphate Assay (Invitrogen).
(§3) FIG. 6 illustrates the inhibition of CD39L3 examined with the general ectoATPase inhibitor, ARL 67156. HEK293 cells were transiently transfected with full length human CD39L3. […] Activity assays were performed with the Piper Phosphate Assay (Molecular Probes).
(§4) As the activity of CD39L3 involves the hydrolysis of nucleoside triphosphates and diphosphates, Molecular Probes' Piper Phosphate Assay Kit™, which is an assay that detects free phosphate, a product of the hydrolysis, was used.
(§5) Cells were transiently transfected with the full length human CD39L3 clone were measured for nucleotide hydrolysis activity in suspension or adhered to the plate, within an isotonic buffer including the required cation cofactor, calcium or magnesium. Batches of transiently transfected CD39L3 cells were produced and frozen until use.
(§6) Using cells that were frozen and thawed, the Piper Phosphate Assay was used to determine the Km of ATP and ADP for the full length human CD39L3 clone (FIGS. 4 and 5). In addition, to validate the detection of an inhibitor with this assay format, a general ectoATPase inhibitor, ARL 67156, was examined.

Assay [2] has as its target T2, full length human CD39L3 (Homo sapiens, UniProt O75355).
T2 construct: Cells were transiently transfected with the full length human CD39L3 clone; expressed in transfected cells; host or cells: HEK293 cells, transiently transfected; frozen and thawed intact cells
T2 sequence (O75355 1-529 A496V): T1 sequence (O75355 1-529 A496V)
The description is as above. The conditions noted are these: HEK293 cells transiently transfected with full length human CD39L3, read-out: IC50, inhibition of CD39L3. In kind it is biochemical. The protocol:
as §1, §2, §3, §4, §5, §6

The record followed here is patent publication US7556930B2, “CD39L3 and its role in diabetes” (Metabolex Inc., priority 2005, dated 2009).

Where two headings read alike, the source gives them in different places.

Regarding `Nc1ncnc2c1ncn2[C@@H]1O[C@H](COP(=O)(O)OP(=O)(O)OP(=O)(O)O)[C@@H](O)[C@H]1O` [ATP], the Km on full length human CD39L3 [1] (1 mM CaCl2, read-out: Km of ATP) turned out to be 105 µM; on full length human CD39L3 [1] (1 mM MgCl2, read-out: Km of ATP), 60 µM; on full length human CD39L3 [1] (5 mM CaCl2, read-out: Km of ATP), 85 µM; on full length human CD39L3 [1] (5 mM MgCl2, read-out: Km of ATP), 52 µM.
For the compound `Nc1ncnc2c1ncn2[C@@H]1O[C@H](COP(=O)(O)OP(=O)(O)O)[C@@H](O)[C@H]1O` [ADP], the Km was determined as 42 µM at full length human CD39L3 [1] (1 mM CaCl2, read-out: Km of ADP); 35 µM on full length human CD39L3 [1] (1 mM MgCl2, read-out: Km of ADP); 39 µM at full length human CD39L3 [1] (5 mM CaCl2, read-out: Km of ADP); 44 µM on full length human CD39L3 [1] (5 mM MgCl2, read-out: Km of ADP).
`CCN(CC)c1ncnc2c1ncn2[C@@H]1O[C@H](COP(=O)(O)OP(=O)(O)C(Br)(Br)P(=O)(O)O)[C@@H](O)[C@H]1O` [ARL 67156]: the IC50 was 59 µM at full length human CD39L3 [2] (40 uM ADP+5 mM CaCl2), 57 µM at full length human CD39L3 [2] (40 uM ADP+5 mM MgCl2), 49 µM at full length human CD39L3 [2] (65 μM ATP+5 mM CaCl2) and 59 µM at full length human CD39L3 [2] (65 uM ATP+5 mM MgCl2).

In general, Km refers to the substrate concentration at which the rate is half of its maximum. The term IC50 denotes the concentration that gives 50% inhibition.
